The text below walks through data of patent publication US20240343694A1, “PYRIMIDINE DERIVATIVE, METHOD FOR PREPARING SAME, AND PHARMACEUTICAL COMPOSITION FOR PREVENTING OR TREATING CANCER COMPRISING SAME AS ACTIVE INGREDIENT” (KOREA RESERARCH INSTITUTE OF CHEMICAL TECHNOLOGY, priority 2021, published 2024).

One assay concerns the target EGFR A763_Y764insFHEA (Homo sapiens (Human), UniProt P00533, INS763FHEA). The assay is described as follows: HTRF inhibitory activity against EGFR mutant enzyme (EGFR A763_Y764insFHEA). Type of assay: biochemical. To be noted: recombinant enzyme, 37° C. for 2 hours. The gist of the method: (§1)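 IC50 was derived from 7 concentrations by HTRF: Eu-anti-pTyr and streptavidin-XL665 for 1 h at room temperature, with the 615/665 nm ratio read. The kinase reaction ran 2 h at 37 °C in Tris pH 7.5 buffer with ATP (stated 50 mM) and biotinylated peptide (0.5 mM). Enzyme was preincubated with compound before substrate was added.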

Assay [1] deals with Ba/F3 EGFR D770_N771insSVD. Description: Growth inhibition of Ba/F3 EGFR mutant cells (CellTiter-Glo). To be noted: Ba/F3 EGFR-D770-N771ins_SVD, 72 hours. It counts as cell-based. A digest of the protocol: (§2)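 Ba/F3 cells expressing either EGFR insertion mutant were seeded at 1,000 cells/well and dosed 24 h later at eight concentrations from 0 to 10 μM. After 72 h, viability was read by CellTiter-Glo ATP signal. IC50 (μM) was fitted from the eight-point curves.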

Assay [2] concerns Ba/F3 EGFR V769_D770insASV. The description is as above. It counts as cell-based. To be noted: 72 hours. A digest of the protocol: as §2
A further assay concerns the target EGFR del19 (Homo sapiens (Human), UniProt P00533, DEL746-750). The assay is described as follows: HTRF inhibitory activity against EGFR mutant enzyme (EGFR del19). The note with it: recombinant enzyme, 37° C. for 2 hours. It counts as biochemical. A digest of the protocol:
as §1

For a further assay, the target named is HER2 A775_G776insYVMA (Homo sapiens (Human), UniProt P04626, INS775YVMA). The assay is described as follows: HTRF inhibitory activity against HER2 mutant enzyme. It counts as biochemical. To be noted: recombinant enzyme, 37° C. for 2 hours. The gist of the method:
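Recombinant HER2 A775_G776insYVMA preincubated with compound, then […] and biotinylated peptide ([…]) added; 2 h at 37 °C in Tris-HCl pH 7.5 buffer with MgCl2, DTT. HTRF detection (Eu anti-phosphotyrosine/streptavidin-XL665); IC50 from 7 concentrations.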

A further assay relates to Ba/F3 HER2 G776delinsVC. The assay is described as follows: Growth inhibition of Ba/F3 HER2 mutant cells (CellTiter-Glo). The note with it: Mus musculus, BaF3, 72 hours. Type of assay: cell-based. A digest of the protocol:
(§3)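 Ba/F3 cells carrying HER2 A775_G776insYVMA or G776delinsVC were seeded at 1,000 cells/well and dosed 24 h later at 0.01-10 μM (8 concentrations including 0). After 72 h, viability was read as cellular ATP by CellTiter-Glo luminescence, and IC50 values were calculated from the 8-point curves.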

The test system of assay [3] is Ba/F3 HER2 A775_G776insYVMA. The description is as above. It counts as cell-based. The note with it: Mus musculus, BaF3, 72 hours. The gist of the method:
as §3

Sequence of HER2 A775_G776insYVMA (P04626 other isoform, or with tags, fused parts or gaps del 1-675/ins YVMA behind 775 limits assumed): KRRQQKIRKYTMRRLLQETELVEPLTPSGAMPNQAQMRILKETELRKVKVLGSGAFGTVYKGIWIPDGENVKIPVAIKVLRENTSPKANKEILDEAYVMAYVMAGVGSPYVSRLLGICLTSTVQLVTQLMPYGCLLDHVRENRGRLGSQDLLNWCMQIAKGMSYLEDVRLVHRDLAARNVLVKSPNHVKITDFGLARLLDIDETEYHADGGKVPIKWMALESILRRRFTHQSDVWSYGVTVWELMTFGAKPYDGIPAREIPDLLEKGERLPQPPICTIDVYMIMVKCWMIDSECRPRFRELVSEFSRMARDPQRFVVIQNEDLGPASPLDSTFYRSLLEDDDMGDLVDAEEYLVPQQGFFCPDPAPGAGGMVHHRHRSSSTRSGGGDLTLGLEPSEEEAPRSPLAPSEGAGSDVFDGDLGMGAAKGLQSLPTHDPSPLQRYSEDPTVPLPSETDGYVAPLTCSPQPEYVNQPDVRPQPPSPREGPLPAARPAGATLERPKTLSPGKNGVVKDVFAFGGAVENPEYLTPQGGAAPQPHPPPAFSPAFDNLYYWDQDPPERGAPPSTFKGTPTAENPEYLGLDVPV
Sequence of EGFR A763_Y764insFHEA (P00533 other isoform, or with tags, fused parts or gaps del 1-694/ins FHEA behind 763 limits assumed): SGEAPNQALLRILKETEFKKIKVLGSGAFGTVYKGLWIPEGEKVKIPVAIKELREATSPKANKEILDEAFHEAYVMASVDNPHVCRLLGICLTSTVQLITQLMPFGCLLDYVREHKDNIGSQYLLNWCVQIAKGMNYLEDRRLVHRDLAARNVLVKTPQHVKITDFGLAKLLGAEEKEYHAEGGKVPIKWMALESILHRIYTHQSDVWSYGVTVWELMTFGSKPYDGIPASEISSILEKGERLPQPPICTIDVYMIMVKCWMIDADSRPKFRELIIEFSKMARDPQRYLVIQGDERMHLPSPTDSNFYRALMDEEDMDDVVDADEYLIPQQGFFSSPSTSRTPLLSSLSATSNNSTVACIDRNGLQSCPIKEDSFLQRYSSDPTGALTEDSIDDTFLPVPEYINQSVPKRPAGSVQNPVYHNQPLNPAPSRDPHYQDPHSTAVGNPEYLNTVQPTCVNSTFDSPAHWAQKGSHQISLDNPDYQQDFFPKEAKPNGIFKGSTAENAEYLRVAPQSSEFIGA
Sequence of EGFR del19 (P00533 other isoform, or with tags, fused parts or gaps del 1-668/del 746-750 limits assumed): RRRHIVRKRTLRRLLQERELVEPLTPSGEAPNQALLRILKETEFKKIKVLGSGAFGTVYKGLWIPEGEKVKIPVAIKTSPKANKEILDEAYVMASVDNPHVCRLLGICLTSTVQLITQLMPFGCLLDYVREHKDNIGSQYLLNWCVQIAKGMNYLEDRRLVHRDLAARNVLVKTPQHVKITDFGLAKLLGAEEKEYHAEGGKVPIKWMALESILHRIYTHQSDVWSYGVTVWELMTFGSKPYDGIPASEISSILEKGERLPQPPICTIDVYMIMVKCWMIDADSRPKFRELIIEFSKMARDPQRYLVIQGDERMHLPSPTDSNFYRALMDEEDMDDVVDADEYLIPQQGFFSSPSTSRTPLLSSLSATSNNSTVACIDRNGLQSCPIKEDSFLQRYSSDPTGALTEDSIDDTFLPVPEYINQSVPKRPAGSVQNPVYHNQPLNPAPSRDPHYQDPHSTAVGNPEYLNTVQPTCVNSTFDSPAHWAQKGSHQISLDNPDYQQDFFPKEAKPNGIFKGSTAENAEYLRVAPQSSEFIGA

Turning to `C=CC(=O)Nc1cc(Nc2ncc(Cl)c(Nc3cccc4c3N(C(C)=O)CC4)n2)c(OC)cc1N(C)CCNC` [Example 92, N-(5-((4-((1-acetylindolin-7-yl)amino)-5-chloropyrimidin-2-yl)amino)-4-methoxy-2-(methyl(2-(methylamino)ethyl)amino)phenyl)acrylamide], the IC50 on EGFR A763_Y764insFHEA is 1 nM; in assay [1], 10 to 30 nM; in assay [2], 10 to 30 nM; on EGFR del19, less than 1 nM; on HER2 A775_G776insYVMA, 5 nM; in the assay on Ba/F3 HER2 G776delinsVC, less than 10 nM. For the same molecule, the IC50 in assay [3] was 30 to 50 nM.
On to `C=CC(=O)Nc1cc(Nc2ncc(Cl)c(Nc3cccc4c3N(C(=O)CC)CC4)n2)c(OC)cc1N(C)CCN(C)C` [Example 93, N-(5-((5-chloro-4-((1-propionylindolin-7-yl)amino)pyrimidin-2-yl)amino)-2-((2-(dimethylamino)ethyl)(methyl)amino)-4-methoxyphenyl)acrylamide], for which the IC50 was 2 nM on EGFR A763_Y764insFHEA; 10 to 30 nM in assay [1]; 10 to 30 nM in assay [2]; 1 nM on EGFR del19; 11 nM at HER2 A775_G776insYVMA; less than 10 nM in the assay with Ba/F3 HER2 G776delinsVC. Moreover, in assay [3], the IC50 lay in the range of 10 to 30 nM.
Consider `C=CC(=O)Nc1cc(Nc2ncc(Cl)c(Nc3cccc4c3N(C(=O)CC)CCC4)n2)c(OC)cc1N(C)CCN(C)C` [Example 94, N-(5-((5-chloro-4-((1-propionyl-1,2,3,4-tetrahydroquinolin-8-yl)amino)pyrimidin-2-yl)amino)-2-((2-(dimethylamino)ethyl)(methyl)amino)-4-methoxyphenyl)acrylamide], for which the IC50 is 22 nM on EGFR A763_Y764insFHEA; 10 to 30 nM in assay [1]; 10 to 30 nM in assay [2]; 4 nM on EGFR del19; 292 nM at HER2 A775_G776insYVMA; less than 10 nM in the assay on Ba/F3 HER2 G776delinsVC. This molecule yielded an IC50 in assay [3] greater than 100 nM.
In the case of `C=CC(=O)Nc1cc(Nc2ncc(Cl)c(Nc3cccc4c3N(C(C)=O)CCC4)n2)c(OC)cc1N(C)CCN(C)C` [Example 95, N-(5-((4-((1-acetyl-1,2,3,4-tetrahydroquinolin-8-yl)amino)-5-chloropyrimidin-2-yl)amino)-2-((2-(dimethylamino)ethyl)(methyl)amino)-4-methoxyphenyl)acrylamide], the 50% inhibitory concentration (IC50) was 11 nM at EGFR A763_Y764insFHEA; 10 to 30 nM in assay [1]; 10 to 30 nM in assay [2]; 2 nM on EGFR del19; 54 nM on HER2 A775_G776insYVMA; less than 10 nM in the assay on Ba/F3 HER2 G776delinsVC. Moreover, the concentration for half-maximal inhibition (IC50) in assay [3] lay within 30 to 50 nM.
On to `CC#CC(=O)Nc1cc(Nc2ncc(Cl)c(Nc3cccc4c3N(S(C)(=O)=O)CC4)n2)c(OC)cc1N(C)CCN(C)C` [Example 96, N-(5-((5-chloro-4-((1-(methylsulfonyl)indolin-7-yl)amino)pyrimidin-2-yl)amino)-2-((2-(dimethylamino)ethyl)(methyl)amino)-4-methoxyphenyl) but-2-inamide], for which the IC50 is 10 nM at EGFR A763_Y764insFHEA; less than 10 nM in assay [1]; less than 10 nM in assay [2]; 1 nM at EGFR del19; 87 nM at HER2 A775_G776insYVMA; less than 10 nM with Ba/F3 HER2 G776delinsVC. In assay [3], this molecule registered an IC50 greater than 100 nM.
Turning to `CC#CC(=O)Nc1cc(Nc2ncc(Cl)c(Nc3cccc4c3N(C(C)=O)CC4)n2)c(OC)cc1N(C)CCN(C)C` [Example 97, N-(5-((4-((1-acetylindolin-7-yl)amino)-5-chloropyrimidin-2-yl)amino)-2-((2-(dimethylamino)ethyl)(methyl)amino)-4-methoxyphenyl) but-2-inamide], the IC50 on EGFR A763_Y764insFHEA is 280 nM; in assay [1] it was 10 to 30 nM; in assay [2] it was 10 to 30 nM; on EGFR del19 it was 15 nM; at HER2 A775_G776insYVMA it was 258 nM; in the assay with Ba/F3 HER2 G776delinsVC, less than 10 nM. This molecule gave an IC50 in assay [3] greater than 100 nM.
With `CC#CC(=O)Nc1cc(Nc2ncc(Cl)c(Nc3ccc(C)cc3N(C)S(C)(=O)=O)n2)c(OC)cc1N(C)CCN(C)C` [Example 98, N-(5-((5-chloro-4-((4-methyl-2-(N-methylmethylsulfonamido)phenyl)amino)pyrimidin-2-yl)amino)-2-((2-(dimethylamino)ethyl)(methyl)amino)-4-methoxyphenyl) but-2-inamide], the IC50 on EGFR A763_Y764insFHEA was 9 nM; in assay [1] it was 10 to 30 nM; in assay [2] it was 10 to 30 nM; on EGFR del19, less than 1 nM; on HER2 A775_G776insYVMA it was 53 nM; in the assay on Ba/F3 HER2 G776delinsVC, less than 10 nM. This molecule had an IC50 in assay [3] greater than 100 nM.
As to `C=CC(=O)Nc1cc(Nc2ncc(C#N)c(Nc3cccc4c3N(C(C)=O)CC4)n2)c(OC)cc1N(C)CCN(C)C` [Example 99, N-(5-((4-((1-acetylindolin-7-yl)amino)-5-cyanopyrimidin-2-yl)amino)-2-((2-(dimethylamino)ethyl)(methyl)amino)-4-methoxyphenyl)acrylamide], the half-maximal inhibitory concentration (IC50) was 3 nM at EGFR A763_Y764insFHEA; 10 to 30 nM in assay [1]; 10 to 30 nM in assay [2]; 1 nM on EGFR del19; 19 nM on HER2 A775_G776insYVMA; less than 10 nM in the assay with Ba/F3 HER2 G776delinsVC. The IC50 in assay [3] was in the range of 10 to 30 nM.
As for `C=CC(=O)Nc1cc(Nc2nccc(Nc3cccc4c3N(C(C)=O)CC4)n2)c(OC)cc1N(C)CCN(C)C` [Example 100, N-(5-((4-((1-acetylindolin-7-yl)amino)pyrimidin-2-yl)amino)-2-((2-(dimethylamino)ethyl)(methyl)amino)-4-methoxyphenyl)acrylamide], the IC50 on EGFR A763_Y764insFHEA is 9 nM; in assay [1], 10 to 30 nM; in assay [2], 10 to 30 nM; on EGFR del19, 3 nM; on HER2 A775_G776insYVMA, 225 nM; in the assay with Ba/F3 HER2 G776delinsVC, less than 10 nM. Further, in assay [3], the IC50 is greater than 100 nM.
